# Source: patent US20230382868A1 (priority 2022, published 2023)
# Like-named read-outs stand apart in the source and are kept apart here.
# How the values were obtained:
# hMAO-B = target: T1, hMAO-B (Homo sapiens, UniProt P27338); type: biochemical; details: read-out: IC50 ± SEM hMAO-B
# T1 construct: purchased Sigma Aldrich; host or cells: BTI-TN-5B1-4 insect cells
# T1 sequence (P27338 1-520): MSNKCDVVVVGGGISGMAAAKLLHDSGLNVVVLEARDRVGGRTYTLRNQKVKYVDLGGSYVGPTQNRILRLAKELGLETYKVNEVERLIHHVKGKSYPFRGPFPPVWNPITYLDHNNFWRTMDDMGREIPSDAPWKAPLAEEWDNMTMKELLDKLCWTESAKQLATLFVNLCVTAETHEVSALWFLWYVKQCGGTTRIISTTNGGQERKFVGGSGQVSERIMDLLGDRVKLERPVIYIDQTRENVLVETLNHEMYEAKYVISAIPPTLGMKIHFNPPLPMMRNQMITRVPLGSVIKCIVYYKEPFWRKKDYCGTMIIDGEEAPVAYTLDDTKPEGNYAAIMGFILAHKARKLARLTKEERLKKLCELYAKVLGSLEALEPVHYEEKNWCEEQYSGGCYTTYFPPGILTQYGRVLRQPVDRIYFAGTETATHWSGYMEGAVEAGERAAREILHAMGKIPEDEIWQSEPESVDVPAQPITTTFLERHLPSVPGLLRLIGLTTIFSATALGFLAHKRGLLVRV
# hAChE = hAChE (Homo sapiens, UniProt P22303); experiment: Inhibition of cholinesterases (Ellman method); type: biochemical; details: n.a. = not active (residual activity at 100 μM ≥50%); three independent experiments; read-out: IC50 ± SEM hAChE
# hBChE = hBChE (Homo sapiens, UniProt P06276); experiment: biochemical; type: biochemical
# [1] = DPPH radical-scavenging assay; details: read-out: free-radical scavenging potency EC50 ± SEM (concentration that scavenged 50% of the DPPH free radicals); DPPH in MeOH, 90 min, room temperature, dark
# Description: Free-radical scavenging potency was evaluated using the DPPH assay. […] The microtiter plate was incubated at room temperature in the dark for 90 min. The absorbance at 517 nm was then determined with a microplate reader (Synergy HT; BioTek Instruments, Inc., VT, USA). The experiments were performed in triplicate, with subtraction of the blank value (compound without DPPH). The percentages of DPPH free radicals were calculated as DPPH free radical (%)=[(A0−A1)/A0]×100, where A0 is the absorbance of the negative control, and A1 is the absorbance of the test sample. […] Resveratrol and Trolox were used as the positive controls under the same assay conditions.
# [2] = Metal-chelating properties (UV-Vis spectra, Cu2+ titration, Yoe-Jones method); type: physicochemical; details: 30 μM compound; for interception point of Cu2+ titration (Yoe-Jones method): 0-150 μM Cu2+, Cu2+/compound molar ratio; for change in absorption spectra on addition of Fe2+ and Fe3+ / change in absorption spectra with Ca2+ and Mg2+: equimolar metal ion, HEPES buffer pH 7.4
# Description: The chelation properties were determined in HEPES buffer (20 mM, 150 mM NaCl, pH 7.4) using a 96-well microplate reader (Synergy HT; BioTek Instruments, Inc., VT, USA). To determine the chelation of the metal ions by the compounds, 30 μM compound solution was treated with equimolar concentrations of CuCl2, ZnCl2, CoCl2, MgCl2, CaCl2, FeCl2, FeCl3, and AlCl3. To prevent oxidation of Fe^2+, the solution of FeCl2 was prepared in the presence of 1 mM ascorbic acid. The absorption spectra were recorded after 30 min incubation at room temperature. The chelation was detected by the change in the absorption spectra, which was specific for each metal ion. The Cu^2+ binding stoichiometry was resolved by titration of a 30 μM buffered solution of the compounds with additions of CuCl2 buffered stock solution. […] The absorbance differences in the absence and presence of Cu^2+ were plotted against the Cu^2+/compound molar ratio.
# [3] = Antioxidant capacity against hydroxyl radicals; details: statement in words, no method given
# primary cultured neurons = experiment: Neuroprotection of primary cultured neurons after experimental ischemia; type: cell-based; details: statement in words, no method given
# [4] = HEPES buffer pH 7.4, 30 min, room temperature
# hBChE, sequence (P06276 29-602): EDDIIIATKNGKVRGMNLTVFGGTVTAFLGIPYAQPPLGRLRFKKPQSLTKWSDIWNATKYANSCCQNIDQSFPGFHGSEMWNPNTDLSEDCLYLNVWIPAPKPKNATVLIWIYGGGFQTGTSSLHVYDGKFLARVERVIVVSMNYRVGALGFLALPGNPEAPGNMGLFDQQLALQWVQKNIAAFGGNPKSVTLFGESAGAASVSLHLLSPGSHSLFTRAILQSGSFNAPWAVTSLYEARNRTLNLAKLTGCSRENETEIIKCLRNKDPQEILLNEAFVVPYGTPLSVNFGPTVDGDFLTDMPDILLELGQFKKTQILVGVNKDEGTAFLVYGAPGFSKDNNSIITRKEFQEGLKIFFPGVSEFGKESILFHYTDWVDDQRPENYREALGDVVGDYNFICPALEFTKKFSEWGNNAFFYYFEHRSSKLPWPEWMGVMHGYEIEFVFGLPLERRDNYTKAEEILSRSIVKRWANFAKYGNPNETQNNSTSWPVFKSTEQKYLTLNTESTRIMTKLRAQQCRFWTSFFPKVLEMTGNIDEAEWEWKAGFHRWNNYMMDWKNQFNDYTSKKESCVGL
# hAChE, sequence (P22303 32-614): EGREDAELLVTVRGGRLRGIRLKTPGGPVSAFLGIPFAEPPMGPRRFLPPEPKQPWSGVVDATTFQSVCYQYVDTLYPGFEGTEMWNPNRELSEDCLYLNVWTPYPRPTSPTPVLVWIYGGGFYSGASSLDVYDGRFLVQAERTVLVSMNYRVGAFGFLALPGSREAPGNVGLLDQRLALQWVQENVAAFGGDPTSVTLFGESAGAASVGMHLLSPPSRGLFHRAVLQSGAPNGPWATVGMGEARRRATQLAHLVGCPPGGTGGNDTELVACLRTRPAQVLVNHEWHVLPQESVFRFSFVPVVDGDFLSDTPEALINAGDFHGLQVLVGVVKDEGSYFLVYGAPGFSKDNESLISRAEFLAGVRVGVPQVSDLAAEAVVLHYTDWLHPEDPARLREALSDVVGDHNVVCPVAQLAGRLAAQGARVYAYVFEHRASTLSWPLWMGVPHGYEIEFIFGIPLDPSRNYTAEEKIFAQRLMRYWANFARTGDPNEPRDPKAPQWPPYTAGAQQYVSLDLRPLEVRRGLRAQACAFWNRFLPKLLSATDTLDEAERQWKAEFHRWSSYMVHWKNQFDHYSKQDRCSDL
compound,measurement,setting,value
"C/[N+]([O-])=C/c1ccc2cccc(O)c2n1 [Compound 9, (Z)-1-(8-Hydroxyquinolin-2-yl)-N-methylmethanimine oxide]",IC50,hMAO-B,10100 ± 2500 nM
"[O-]/[N+](=C\c1ccc2cccc(O)c2n1)Cc1ccccc1 [Compound 11, (Z)-N-Benzyl-1-(8-hydroxyquinolin-2-yl)methanimine oxide]",IC50,hAChE,29 ± 3 nM
same,IC50,hBChE,≤ 1.1 nM
same,EC50,[1],126000 ± 100 nM
same,interception point of Cu2+ titration (Yoe-Jones method),[2],0.5
same,change in absorption spectra on addition of Fe2+ and Fe3+,[2],hypochromic change in absorbance spectra
same,change in absorption spectra with Ca2+ and Mg2+,[2],no major alterations in spectra
same,antioxidant capacity against hydroxyl radicals,[3],striking antioxidant capacity
same,neuroprotection of primary cultured neurons after experimental ischemia,primary cultured neurons,remarkable activity for neuroprotection
"CC(C)(C)/[N+]([O-])=C/c1ccc2cccc(O)c2n1 [Compound 10, (Z)-N-tert-butyl-1-(8-hydroxyquinolin-2-yl)methanimine oxide]",IC50,hMAO-B,16400 ± 1000 nM
same,IC50,hBChE; read-out: IC50 ± SEM hBChE,5.1 ± 0.6 nM
same,EC50,[1],119000 ± 1200 nM
same,interception point of Cu2+ titration (Yoe-Jones method),[2],0.5
same,new absorption maximum with equimolar Al3+ (bathochromic shift),[2]; [4],296 nm
same,new absorption maximum with equimolar Cu2+ (bathochromic shift),[2]; [4],310 nm
same,new absorption maximum with equimolar Zn2+ (bathochromic shift),[2]; [4],309 nm
same,change in absorption spectra on addition of Fe2+ and Fe3+,[2],hyperchromic shift
same,change in absorption spectra with Ca2+ and Mg2+,[2],no major changes in absorption spectra
"CC(C)(C)/[N+]([O-])=C/c1ccc2cccc(OCCCN3CCCCC3)c2n1 [Compound 3, (Z)-N-tert-Butyl-1-(8-(3-(piperidin-1-yl)propoxy)quinolin-2-yl)methanimine oxide]",IC50,hBChE; read-out: IC50 ± SEM hBChE,25.4 ± 2.1 nM
"C#CCN1CCN(CCCOc2cccc3ccc(/C=[N+](\[O-])C(C)(C)C)nc23)CC1 [Compound 7, (Z)-N-tert-Butyl-1-(8-(3-(4-(prop-2-yn-1-yl)piperazin-1-yl)propoxy)quinolin-2-yl)methanimine oxide]",IC50,hBChE; read-out: IC50 ± SEM hBChE,7.3 ± 1.1 nM
"C#CCN1CCN(CCCOc2cccc3ccc(/C=[N+](\[O-])Cc4ccccc4)nc23)CC1 [Compound 8, (Z)-N-Benzyl-1-(8-(3-(4-(prop-2-yn-1-yl)piperazin-1-yl)propoxy)quinolin-2-yl)methanimine oxide]",IC50,hBChE,31 ± 6.4 nM
"[O-]/[N+](=C\c1ccc2cccc(OCCCN3CCCCC3)c2n1)Cc1ccccc1 [Compound 4, (Z)-N-Benzyl-1-(8-(3-(piperidin-1-yl)propoxy)quinolin-2-yl)methanimine oxide]",IC50,hBChE,76.9 ± 6.3 nM
